Reference: ChEMBL document CHEMBL1125810, “Acyclic analogues of 2-(4-phenylpiperidino)cyclohexanol (vesamicol): conformationally mobile inhibitors of vesicular acetylcholine transport” (J Med Chem, 1991)

Target: T1, Vesicular acetylcholine transporter (Torpedo californica, UniProt P81721)
T1 sequence (P81721 whole entry): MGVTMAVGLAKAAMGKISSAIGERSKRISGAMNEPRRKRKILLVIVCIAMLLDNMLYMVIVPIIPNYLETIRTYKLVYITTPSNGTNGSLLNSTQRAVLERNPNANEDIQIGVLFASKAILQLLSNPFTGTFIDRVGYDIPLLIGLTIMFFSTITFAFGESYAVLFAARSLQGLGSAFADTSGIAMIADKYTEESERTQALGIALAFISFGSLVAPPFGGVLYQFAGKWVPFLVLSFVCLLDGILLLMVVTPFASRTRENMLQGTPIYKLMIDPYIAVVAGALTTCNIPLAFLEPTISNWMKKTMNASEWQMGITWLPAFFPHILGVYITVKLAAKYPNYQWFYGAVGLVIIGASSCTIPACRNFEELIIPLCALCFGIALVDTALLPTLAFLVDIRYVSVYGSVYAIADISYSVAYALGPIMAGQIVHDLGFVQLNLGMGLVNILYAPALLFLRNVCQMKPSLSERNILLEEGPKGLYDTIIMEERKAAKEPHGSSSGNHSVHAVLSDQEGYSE
Experiment: Displacement of [3H]vesamicol from Vesamicol receptor of Torpedo californica
Set-up: species or system Tetronarce californica

Structure (SMILES) | IC50
OC(Cc1cccc(I)c1)CN1CCC(c2ccccc2)CC1 (centres undefined) | 73 nM
OC(Cc1cccc2ccccc12)CN1CCC(c2ccccc2)CC1 (centres undefined) | 1400 nM
OC(Cc1cccc(Br)c1)CN1CCC(c2ccccc2)CC1 (centres undefined) | 73 nM
OC(Cc1ccc(Br)cc1)CN1CCN(c2ccccc2)CC1 (centres undefined) | 1540 nM
Oc1cccc(CC(O)CN2CCC(c3ccccc3)CC2)c1 (centres undefined) | 520 nM
OC(Cc1ccc2ccccc2c1)CN1CCC(c2ccccc2)CC1 (centres undefined) | 145 nM
OC(Cc1cccc(Br)c1)CN1CCN(c2ccccc2)CC1 (centres undefined) | 990 nM
Oc1ccc(CC(O)CN2CCC(c3ccccc3)CC2)cc1 (centres undefined) | 220 nM
COc1cccc(CC(O)CN2CCC(c3ccccc3)CC2)c1 (centres undefined) | 115 nM
